Measured values: ChEMBL document CHEMBL1201862, “PubChem BioAssay data set” (2004)
Structures can show the parent of a compound that is named as a salt.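 These data come from cells grown in 96-well plates and exposed to compound for 48 hours at five concentrations. GI50 marks 50% less growth.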 Calls of active or inactive are those of the source. Cut-off read from the data, not from the text of the source: active = GI50 up to about 1.1 µM and inactive = higher.

Experiments:
Assay in all cases: growth of human tumour cells (NCI), 48 h
HCC 2998 = system: HCC 2998
PC-3 = system: PC-3
KM12 = system: KM12
DU-145 = system: DU-145
SF-539 = system: SF-539
SNB-19 = system: SNB-19
NCI-H23 = system: NCI-H23
SF-268 = system: SF-268
TK-10 = system: TK-10
SK-MEL-2 = system: SK-MEL-2
T47D = system: T47D
UACC-62 = system: UACC-62
MCF7 = system: MCF7
CAKI-1 = system: CAKI-1
NCI-H226 = system: NCI-H226
UO-31 = system: UO-31
LOX IMVI = system: LOX IMVI
A549 = system: A549
M14 = system: M14
SW-620 = system: SW-620

| SMILES | GI50 (HCC 2998) | GI50 (PC-3) | GI50 (KM12) | GI50 (DU-145) | GI50 (SF-539) | GI50 (SNB-19) | GI50 (NCI-H23) | GI50 (SF-268) | GI50 (TK-10) | GI50 (SK-MEL-2) | GI50 (T47D) | GI50 (UACC-62) | GI50 (MCF7) | GI50 (CAKI-1) | GI50 (NCI-H226) | GI50 (UO-31) | GI50 (LOX IMVI) | GI50 (A549) | GI50 (M14) | GI50 (SW-620) |
| --- | --- | --- | --- | --- | --- | --- | --- | --- | --- | --- | --- | --- | --- | --- | --- | --- | --- | --- | --- | --- |
| C=C(Cl)CN1c2ccccc2C=Cc2ccccc21 | 17.6 µM (inactive) | 9.12 µM (inactive) | 11 µM (inactive) | 29.7 µM (inactive) | 18 µM (inactive) | 22.5 µM (inactive) | > 100 µM (inactive) | 15.7 µM (inactive) | 48.3 µM (inactive) | 18.7 µM (inactive) | 16.9 µM (inactive) | 10.1 µM (inactive) | 15.2 µM (inactive) | 10 µM (inactive) | 27.5 µM (inactive) | 31.6 µM (inactive) | 11 µM (inactive) | 15.6 µM (inactive) | 17 µM (inactive) |  |
| O=C(/C=C/c1ccc([N+](=O)[O-])cc1)N1CCN(CCOC(c2ccc(F)cc2)c2ccc(F)cc2)CC1 | 29.2 µM (inactive) | > 100 µM (inactive) | 7.36 µM (inactive) | 18.4 µM (inactive) | 45.9 µM (inactive) | > 100 µM (inactive) | > 100 µM (inactive) | > 100 µM (inactive) | > 100 µM (inactive) | > 100 µM (inactive) | 4.74 µM (inactive) | 13.8 µM (inactive) | 5.19 µM (inactive) | 18.2 µM (inactive) | > 100 µM (inactive) | 14.3 µM (inactive) | 24.6 µM (inactive) | 12 µM (inactive) | 6.35 µM (inactive) | > 100 µM (inactive) |
| Oc1ccc(Cl)cc1-c1cc(-c2ccccc2)nc(NCN2CCCCC2)n1 | > 100 µM (inactive) | > 100 µM (inactive) | 0.78 µM (active) | > 100 µM (inactive) | > 100 µM (inactive) | > 100 µM (inactive) | 72.1 µM (inactive) | 7.14 µM (inactive) | > 100 µM (inactive) | > 100 µM (inactive) | > 100 µM (inactive) | > 100 µM (inactive) | 2.78 µM (inactive) | 8.81 µM (inactive) | 0.838 µM (active) | > 100 µM (inactive) | > 100 µM (inactive) | > 100 µM (inactive) | > 100 µM (inactive) | > 100 µM (inactive) |
| COC(=O)[C@]12CC=C3O[C@@H]4OC5(CCCCC5)O[C@@H]4[C@H]3C1C(=O)C=CC2=O (some centres not stated) | 17.2 µM (inactive) | 24.9 µM (inactive) | 10.9 µM (inactive) | 21 µM (inactive) | 19.6 µM (inactive) | 38.3 µM (inactive) | 17.1 µM (inactive) | 3.97 µM (inactive) | 17.1 µM (inactive) | 22.2 µM (inactive) | 17.1 µM (inactive) | 16 µM (inactive) | 16 µM (inactive) | 15.9 µM (inactive) | 18.6 µM (inactive) | 17 µM (inactive) | 16.8 µM (inactive) | 32.1 µM (inactive) | 17.4 µM (inactive) | 15.9 µM (inactive) |
| Cn1c(N)cc(=O)nc1N | > 100 µM (inactive) | > 100 µM (inactive) | > 100 µM (inactive) | > 100 µM (inactive) | > 100 µM (inactive) | > 100 µM (inactive) | > 100 µM (inactive) | > 100 µM (inactive) | > 100 µM (inactive) | > 100 µM (inactive) | > 100 µM (inactive) | > 100 µM (inactive) | > 100 µM (inactive) | > 100 µM (inactive) | > 100 µM (inactive) | > 100 µM (inactive) | > 100 µM (inactive) | > 100 µM (inactive) | > 100 µM (inactive) | > 100 µM (inactive) |
| Cc1cccc2c1NC(=S)[C@@H]1CCCN1C2=O | > 100 µM (inactive) | > 100 µM (inactive) | > 100 µM (inactive) | > 100 µM (inactive) | > 100 µM (inactive) | > 100 µM (inactive) | > 100 µM (inactive) | > 100 µM (inactive) | > 100 µM (inactive) | > 100 µM (inactive) | > 100 µM (inactive) | > 100 µM (inactive) | > 100 µM (inactive) | > 100 µM (inactive) | > 100 µM (inactive) | > 100 µM (inactive) | > 100 µM (inactive) | > 100 µM (inactive) | > 100 µM (inactive) | > 100 µM (inactive) |
| CC(C)[Si](OCC/C=C/C1CCC(=O)C1C(O)C1CCCCC1)(C(C)C)C(C)C (configuration not stated) | 8.99 µM (inactive) | 13.3 µM (inactive) | 15.9 µM (inactive) | 16.4 µM (inactive) | 19.8 µM (inactive) | 17.7 µM (inactive) | 15.6 µM (inactive) | 7.13 µM (inactive) | 17.9 µM (inactive) | 12.9 µM (inactive) | 15 µM (inactive) | 14.9 µM (inactive) | 15.9 µM (inactive) | 14.7 µM (inactive) | 16 µM (inactive) | 16.6 µM (inactive) | 17.1 µM (inactive) | 13.8 µM (inactive) | 17.2 µM (inactive) | 16 µM (inactive) |
| CCOC(=O)c1c(SCCN(CC)CC)n(-c2ccccc2)c(=S)n(-c2ccccc2)c1=O | 1.73 µM (inactive) | 2.05 µM (inactive) | 14.3 µM (inactive) | 1.68 µM (inactive) | 4.48 µM (inactive) | 17.9 µM (inactive) | 15.9 µM (inactive) | 4.56 µM (inactive) | 1.81 µM (inactive) | 13.4 µM (inactive) | 2.55 µM (inactive) | 4.61 µM (inactive) | 1.27 µM (inactive) | 2.16 µM (inactive) | 21.5 µM (inactive) | 1.72 µM (inactive) | 1.95 µM (inactive) | 3.16 µM (inactive) | 1.74 µM (inactive) | 2.74 µM (inactive) |
| CN(C)CCOc1ccc(/C(=C(/CCCl)c2ccccc2)c2ccccc2)cc1 [TOREMIFENE CITRATE] | 5.16 µM (inactive) | 16.4 µM (inactive) | 17.7 µM (inactive) | 17.7 µM (inactive) | 16.2 µM (inactive) | 15 µM (inactive) | 17.5 µM (inactive) | 17.4 µM (inactive) | 15.3 µM (inactive) | 15.5 µM (inactive) | 11.6 µM (inactive) |  | 1.58 µM (inactive) | 15 µM (inactive) | 19.1 µM (inactive) | 16.7 µM (inactive) | 18.1 µM (inactive) | 16.3 µM (inactive) | 14.1 µM (inactive) | 16.5 µM (inactive) |
| Cc1cccc(NC(=S)Nc2ccc(Cl)cc2)n1 | > 100 µM (inactive) | > 100 µM (inactive) | 3.1 µM (inactive) | > 100 µM (inactive) | > 100 µM (inactive) | > 100 µM (inactive) | > 100 µM (inactive) | > 100 µM (inactive) | > 100 µM (inactive) | > 100 µM (inactive) | > 100 µM (inactive) | > 100 µM (inactive) | > 100 µM (inactive) | > 100 µM (inactive) | > 100 µM (inactive) | > 100 µM (inactive) | > 100 µM (inactive) |  | > 100 µM (inactive) | > 100 µM (inactive) |
